The text below walks through data of patent US7332501B2, “Indol-3-yl-carbonyl-spiro-piperidine derivatives as V1a receptor antagonists” (Hoffmann-La Roche Inc., priority 2005, dated 2008).

The structures appear in SMILES notation.

For this assay, the target named is T1, human V1a receptor (Homo sapiens, UniProt P37288).
T1 construct: expressed in transfected cells; host or cells: HEK293 cells, transiently transfected; cell membranes
T1 sequence (P37288 whole entry): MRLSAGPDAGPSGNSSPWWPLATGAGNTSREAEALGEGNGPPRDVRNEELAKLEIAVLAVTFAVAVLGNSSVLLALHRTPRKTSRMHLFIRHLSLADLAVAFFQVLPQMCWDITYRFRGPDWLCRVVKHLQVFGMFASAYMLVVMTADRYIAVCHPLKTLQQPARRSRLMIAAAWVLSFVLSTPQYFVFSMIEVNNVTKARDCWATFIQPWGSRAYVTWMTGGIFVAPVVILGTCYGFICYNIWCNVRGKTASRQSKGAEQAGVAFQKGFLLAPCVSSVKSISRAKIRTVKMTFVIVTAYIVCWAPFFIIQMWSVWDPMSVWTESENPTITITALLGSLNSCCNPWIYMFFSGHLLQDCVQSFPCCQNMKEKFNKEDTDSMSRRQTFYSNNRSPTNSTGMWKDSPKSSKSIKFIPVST
As to the kind of experiment: human V1a receptor binding (3H-Vasopressin SPA, HEK293 membranes). Conditions: displacement of 4 nM 3H-Vasopressin, membranes of HEK293 cells transiently transfected with human V1a receptor; Ki from IC50 by Cheng-Prussoff. The method in brief:
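Ki derived by Cheng-Prusoff from IC50 curves normalised to specific binding. Serially diluted compounds (in 2% DMSO) competed with 3H-vasopressin (4 nM working solution) for 1 h at room temperature on SPA beads bearing membranes of transiently transfected HEK293 cells; unlabelled vasopressin defined non-specific counts.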
On to `CNC(=O)Cn1cc(C(=O)N2CCC3(CC2)OC(=O)c2cc(F)ccc23)c2ccc(Cl)cc21` [Example 116, 2-{6-Chloro-3-[(5-fluoro-3-oxo-1′H,3H-spiro[2-benzofuran-1,4′-piperidin]-1′-yl)carbonyl]-1H-indol-1-yl}-N-methylacetamide], for which the Ki came out at 1.7 nM. `CC(=O)N(C)CCn1cc(C(=O)N2CCC3(CC2)OCc2ccccc23)c2ccc(Cl)cc21` [Example 272, N-{2-[6-Chloro-3-(1′H,3H-spiro[2-benzofuran-1,4′-piperidin]-1′-ylcarbonyl)-1H-indol-1-yl]ethyl}-N-methylacetamide]: the Ki worked out at 1.3 nM. Turning to `O=C(c1cn(C[C@H]2CCCNC2)c2cc(Cl)ccc12)N1CCC2(CC1)OCc1ccccc12` [Example 261, 1′-({6-Chloro-1-[(3S)-piperidin-3-ylmethyl]-1H-indol-3-yl}carbonyl)-3H-spiro[2-benzofuran-1,4′-piperidine]], the affinity corresponds to a Ki of 1.7 nM. This Ki and that of the compound before are within 1.5-fold of each other. Compound `Cc1c(C(=O)N2CCC3(CC2)CNc2ccccc23)c2ccccc2n1Cc1ccccc1` [Example 9, 1′-[(1-benzyl-2-methyl-1H-indol-3-yl)carbonyl]-1,2-dihydrospiro[indole-3,4′-piperidine]] registered a Ki of 9.7 nM.

Compound `Cc1c(C(=O)N2CCC3(CC2)OC(=O)c2c(F)cccc23)c2ccccc2n1Cc1ccccc1` [Example 11, 1′-[(1-benzyl-2-methyl-1H-indol-3-yl)carbonyl]-4-fluoro-3H-spiro[2-benzofuran-1,4′-piperidin]-3-one] gave a Ki of 11.2 nM.

`CCN(CC)C(=O)Cn1cc(C(=O)N2CCC3(CC2)OCc2ccccc23)c2ccc(Cl)cc21` [Example 207, 2-[6-Chloro-3-(1′H,3H-spiro[2-benzofuran-1,4′-piperidin]-1′-ylcarbonyl)-1H-indol-1-yl]-N,N-diethylacetamide] came in with a Ki of 1.1 nM. This Ki lies about 10-fold lower than the previous one. In turn, `Cc1c(C(=O)N2CCC3(CC2)OCc2ccccc23)c2ccccc2n1S(=O)(=O)c1ccccc1` [Example 45, 1′-{[2-methyl-1-(phenylsulfonyl)-1H-indol-3-yl]carbonyl}-3H-spiro[2-benzofuran-1,4′-piperidine]] yielded a Ki of 9.5 nM. `O=C(Cn1cc(C(=O)N2CCC3(CC2)OCc2ccccc23)c2ccc(Cl)cc21)c1ccccn1` [Example 229, 2-[6-Chloro-3-(1′H,3H-spiro[2-benzofuran-1,4′-piperidin]-1′-ylcarbonyl)-1H-indol-1-yl]-1-pyridin-2-ylethanone] returned an inhibition constant (Ki) of 1.6 nM. In turn, `O=C1OC2(CCN(C(=O)c3cn(Cc4cncnc4)c4cc(Cl)ccc34)CC2)c2ccc(F)cc21` [Example 174, 1′-{[6-Chloro-1-(pyrimidin-5-ylmethyl)-1H-indol-3-yl]carbonyl}-5-fluoro-3H-spiro[2-benzofuran-1,4′-piperidin]-3-one] came in with a Ki of 2.6 nM. Under `O=C(c1cn(CCn2cccc2)c2cc(Cl)ccc12)N1CCC2(CC1)COc1ccccc12` [Example 86, 1′-({6-chloro-1-[2-(1H-pyrrol-1-yl)ethyl]-1H-indol-3-yl}carbonyl)spiro[1-benzofuran-3,4′-piperidine]] stands 13.2 nM; under `O=C(c1cn(C(=O)c2ccccc2F)c2cc(Cl)ccc12)N1CCC2(CC1)OCc1ccccc12` [Example 215], 8.6 nM; under `O=C1OC2(CCN(C(=O)c3cn(-c4ccccn4)c4cc(Cl)ccc34)CC2)c2ccc(F)cc21` [Example 160, 1-[(6-Chloro-1-pyridin-2-yl-1H-indol-3-yl)carbonyl]-5-fluoro-3H-spiro[2-benzofuran-1,4′-piperidin]-3-one], 5 nM. `O=C(c1cn(-c2ccccn2)c2cc(Cl)ccc12)N1CCC2(CC1)OCc1ccccc12` [Example 227]: the affinity, expressed as Ki, was 3.8 nM. Next, `Cc1oc(-c2ccccc2)nc1C(=O)Cn1cc(C(=O)N2CCC3(CC2)OC(=O)c2cc(F)ccc23)c2ccc(Cl)cc21` [Example 170, 1′-({6-Chloro-1-[2-(5-methyl-2-phenyl-1,3-oxazol-4-yl)-2-oxoethyl]-1H-indol-3-yl}carbonyl)-5-fluoro-3H-spiro[2-benzofuran-1,4′-piperidin]-3-one]: 2.2 nM; `O=C1OC2(CCN(C(=O)c3cn(Cc4cc(F)cc(F)c4)c4ccccc34)CC2)c2ccc(F)cc21` [Example 201, 1′-{[1-(3,5-Difluorobenzyl)-1H-indol-3-yl]carbonyl}-5-fluoro-3H-spiro[2-benzofuran-1,4′-piperidin]-3-one]: 4.6 nM. In turn, `Cc1c(C(=O)N2CCC3(CC2)OCc2ccccc23)c2ccccc2n1Cc1ccccc1` [Example 39, 1′-[(1-benzyl-2-methyl-1H-indol-3-yl)carbonyl]-3H-spiro[2-benzofuran-1,4′-piperidine]] came in with a Ki of 1.8 nM. Next, `O=C(c1cn(Cc2cccnc2)c2cc(Cl)ccc12)N1CCC2(CC1)OCc1ccccc12` [Example 230, 1′-{[6-Chloro-1-(pyridin-3-ylmethyl)-1H-indol-3-yl]carbonyl}-3H-spiro[2-benzofuran-1,4′-piperidine]]: 1.7 nM; `O=C(c1cn(CC2(F)COC2)c2cc(Cl)ccc12)N1CCC2(CC1)OCc1ccccc12` [Example 243, 1′-({6-Chloro-1-[(3-fluorooxetan-3-yl)methyl]-1H-indol-3-yl}carbonyl)-3H-spiro[2-benzofuran-1,4′-piperidine]]: 1.4 nM. For `Cc1[nH]c2cc(Cl)ccc2c1C(=O)N1CCC2(CC1)OCc1ccccc12` [Example 277, 1′-[(6-Chloro-2-methyl-1H-indol-3-yl)carbonyl]-3H-spiro[2-benzofuran-1,4′-piperidine]], the affinity, expressed as Ki, was 5.2 nM.

Take `O=C(c1cn(CCC2CCOCC2)c2cc(Cl)ccc12)N1CCC2(CC1)OCc1ccccc12` [Example 246, 1′-({6-Chloro-1-[2-(tetrahydro-2H-pyran-4-yl)ethyl]-1H-indol-3-yl}carbonyl)-3H-spiro[2-benzofuran-1,4′-piperidine]]: the inhibitory constant (Ki) is 1.9 nM.

`O=C(Cn1cc(C(=O)N2CCC3(CC2)COc2ccccc23)c2ccc(Cl)cc21)N1CCCCC1` [Example 87, 1′-{[6-chloro-1-(2-oxo-2-piperidin-1-ylethyl)-1H-indol-3-yl]carbonyl}spiro[1-benzofuran-3,4′-piperidine]] returned a Ki of 3.5 nM.

Take `N#CCn1cc(C(=O)N2CCC3(CC2)OC(=O)c2ccccc23)c2ccc(Cl)cc21` [Example 37, {6-chloro-3-[(3-oxo-1′H,3H-spiro[2-benzofuran-1,4′-piperidin]-1′-yl)carbonyl]-1H-indol-1-yl}acetonitrile]: the affinity corresponds to a Ki of 6.3 nM. Against the preceding compound, the Ki is about 1.8-fold higher.

Regarding `COCC1(Cn2cc(C(=O)N3CCC4(CC3)OC(=O)c3ccccc34)c3ccc(Cl)cc32)CC1` [Example 192, 1′-[(6-Chloro-1-{[1-(methoxymethyl)cyclopropyl]methyl}-1H-indol-3-yl)carbonyl]-3H-spiro[2-benzofuran-1,4′-piperidin]-3-one], the inhibition constant (Ki) came out at 2.4 nM. As to `CN1CCC(Cn2cc(C(=O)N3CCC4(CC3)OCc3ccccc34)c3ccc(Cl)cc32)C1` (stereo not drawn) [Example 264, 1′-({6-Chloro-1-[(1-methylpyrrolidin-3-yl)methyl]-1H-indol-3-yl}carbonyl)-3H-spiro[2-benzofuran-1,4′-piperidine]], the inhibition constant (Ki) amounted to 1.8 nM. This Ki and that of the compound before are within 1.5-fold of each other. `N#CCCn1cc(C(=O)N2CCC3(CC2)OC(=O)c2ccccc23)c2ccc(Cl)cc21` [Example 35, 3-{6-chloro-3-[(3-oxo-1′H,3H-spiro[2-benzofuran-1,4′-piperidin]-1′-yl)carbonyl]-1H-indol-1-yl}propanenitrile] yielded a Ki of 2.5 nM. This Ki and that of the compound before are within 1.5-fold of each other. Next, `CC(=O)NCCn1cc(C(=O)N2CCC3(CC2)OCc2ccccc23)c2ccc(Cl)cc21` [Example 270, N-{2-[6-Chloro-3-(1′H,3H-spiro[2-benzofuran-1,4′-piperidin]-1′-ylcarbonyl)-1H-indol-1-yl]ethyl}acetamide]: 1.3 nM; `O=C1OC2(CCN(C(=O)c3cn(Cc4ccncc4)c4cc(Cl)ccc34)CC2)c2ccccc21` [Example 168, 1′-{[6-Chloro-1-(pyridin-4-ylmethyl)-1H-indol-3-yl]carbonyl}-3H-spiro[2-benzofuran-1,4′-piperidin]-3-one]: 2.4 nM; `NCCNC(=O)Cn1cc(C(=O)N2CCC3(CC2)OCc2ccccc23)c2ccc(Cl)cc21` [Example 252, N-(2-Aminoethyl)-2-[6-chloro-3-(1′H,3H-spiro[2-benzofuran-1,4′-piperidin]-1′-ylcarbonyl)-1H-indol-1-yl]acetamide]: 2.3 nM. Compound `Cc1c(C(=O)N2CCC3(CC2)OC(=O)c2cccc(Cl)c23)c2ccccc2n1Cc1ccccc1` [Example 14, 1′-[(1-benzyl-2-methyl-1H-indol-3-yl)carbonyl]-7-chloro-3H-spiro[2-benzofuran-1,4′-piperidin]-3-one] registered a Ki of 11.2 nM. As for `O=C(c1cn(CCN2CCOCC2)c2cc(Cl)ccc12)N1CCC2(CC1)COc1ccccc12` [Example 84, 1′-{[6-chloro-1-(2-morpholin-4-ylethyl)-1H-indol-3-yl]carbonyl}spiro[1-benzofuran-3,4′-piperidine]], the Ki was 3.6 nM. Under `O=C(Cn1cc(C(=O)N2CCC3(CC2)OC(=O)c2ccccc23)c2ccc(Cl)cc21)c1ccc(F)c(F)c1` [Example 154, 1′-({6-Chloro-1-[2-(3,4-difluorophenyl)-2-oxoethyl]-1H-indol-3-yl}carbonyl)-3H-spiro[2-benzofuran-1,4′-piperidin]-3-one] stands 1.3 nM. Compound `Cc1c(C(=O)N2CCC3(CC2)OCc2ccccc23)c2ccccc2n1Cc1ccccc1OC(F)(F)F` [Example 48, 1′-({2-methyl-1-[2-(trifluoromethoxy)benzyl]-1H-indol-3-yl}carbonyl)-3H-spiro[2-benzofuran-1,4′-piperidine]] gave a Ki of 2.6 nM. With `O=C1OC2(CCN(C(=O)c3c(C(=O)N4CCCCC4)[nH]c4cc(Cl)ccc34)CC2)c2ccc(F)cc21` [Example 33, 1′-{[6-chloro-2-(piperidin-1-ylcarbonyl)-1H-indol-3-yl]carbonyl}-5-fluoro-3H-spiro[2-benzofuran-1,4′-piperidin]-3-one], the inhibition constant Ki stood at 10.8 nM.

The Ki is the equilibrium dissociation constant of an inhibitor or competing ligand from its target. Low values mean a stronger hold on the target, high ones a looser hold on the target.
